# Data: patent US20260258032A1, “TYROSINE KINASE 2 INHIBITORS AND USES THEREOF” (BIOGEN MA INC., priority 2022, published 2026)
# pIC50: −log10 of the molar value. Structures can show the parent of a compound that is named as a salt.
# Key:
# JH2 domain of human Tyk2 = target: T1, JH2 domain of human Tyk2 (Homo sapiens, UniProt P29597); test: JH2 biochemical assay (TR-FRET probe displacement); assay type: binding
# T1 construct: 10×His-tagged TYK2 JH2 domain (amino acid 575-876)
# In short: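 10×His-tagged human TYK2 JH2 (aa 575-876, 2 nM) incubated 60 min with 2 nM fluorescent probe, 0.1 nM Tb anti-His antibody and compound (10-point 3-fold series from […] top). TR-FRET 520/495 nm ratio, falling with probe displacement, normalized and fitted to a 4-parameter logistic for IC50.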
# [1] = system: Tyk2 kinase activity on STAT4; test: pSTAT4 cell assay (MSD, NK92 cells); assay type: cell-based; settings: compounds 1 hr
# In short: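 Serum-starved NK92 cells were preincubated 1 hr with compound (10-point, four-fold dilutions from 10 μM), then stimulated with 30 ng/mL IL2 for 15 minutes. Lysates were read on an MSD plate assay using anti-STAT4 antibodies, and IC50 came from a 4-parameter logistic fit of normalized percent activity.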
# T1 sequence (P29597 575-876): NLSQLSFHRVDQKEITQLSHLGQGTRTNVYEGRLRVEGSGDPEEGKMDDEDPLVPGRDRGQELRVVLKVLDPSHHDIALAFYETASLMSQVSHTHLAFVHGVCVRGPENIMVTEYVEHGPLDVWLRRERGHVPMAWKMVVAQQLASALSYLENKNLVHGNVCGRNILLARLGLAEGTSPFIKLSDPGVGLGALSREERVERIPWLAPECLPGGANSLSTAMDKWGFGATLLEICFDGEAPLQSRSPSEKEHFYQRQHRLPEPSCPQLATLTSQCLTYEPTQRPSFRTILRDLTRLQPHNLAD
Compound,pIC50 (JH2 domain of human Tyk2; JH2 biochemical assay),pIC50 ([1]; stimulated 15 minutes),"pIC50 (JH2 domain of human Tyk2; TR-FRET probe displacement, JH2 domain of human Tyk2)",pIC50 ([1]; then stimulated 15 minutes)
"CC(=O)Nc1cc2c(cn1)C1(CC1)CN2c1cc(Oc2ccn(C)n2)nc(C(C)(F)F)n1 [Example 143, N-(1′-(2-(1,1-difluoroethyl)-6-((1-methyl-1H-pyrazol-3-yl)oxy)pyrimidin-4-yl)-1′,2′-dihydrospiro[cyclopropane-1,3′-pyrrolo[3,2-c]pyridin]-6′-yl)acetamide trifluoroacetate]",≥ 8.00,6.00 to 7.00,,
"COc1ccc(-c2cc(N3CC4(CC4)c4cnc(NC(C)=O)cc43)nc(C(C)(F)F)n2)cn1 [Example 243, N-(1′-(2-(1,1-difluoroethyl)-6-(6-methoxypyridin-3-yl)pyrimidin-4-yl)-1′,2′-dihydrospiro[cyclopropane-1,3′-pyrrolo[3,2-c]pyridin]-6′-yl)acetamide trifluoroacetate]",≥ 8.00,7.00 to 8.00,,
"CC(=O)Nc1cc2c(cn1)C1(CC1)CN2c1cc(C)nc(OCC23CC(C)(CO2)C3)n1 [Example 371, N-(1′-(6-methyl-2-((4-methyl-2-oxabicyclo[2.1.1]hexan-1-yl)methoxy)pyrimidin-4-yl)-1′,2′-dihydrospiro[cyclopropane-1,3′-pyrrolo[3,2-c]pyridin]-6′-yl)acetamide]",≤ 6.00,≤ 6.00,,
"CC(=O)Nc1cc2c(cn1)C1(CC1)CN2c1cc(C)cc(N2CC[C@H](C#N)C2)n1 [Example 402, (S)-N-(1′-(6-(3-cyanopyrrolidin-1-yl)-4-methylpyridin-2-yl)-1′,2′-dihydrospiro[cyclopropane-1,3′-pyrrolo[3,2-c]pyridin]-6′-yl)acetamide]",,,7.00 to 8.00,≤ 6.00
"CC(=O)Nc1cc2c(cn1)C1(CC1)CN2c1cc(Cl)nc(C(C)(C)F)n1 [Example 283, N-(1′-(6-chloro-2-(2-fluoropropan-2-yl)pyrimidin-4-yl)-1′,2′-dihydrospiro[cyclopropane-1,3′-pyrrolo[3,2-c]pyridin]-6′-yl)acetamide]",≥ 8.00,6.00 to 7.00,,
"CC(=O)Nc1cc2c(cn1)C1(CC1)CN2c1cc(C)cc(-c2cnn(C3CC3)c2)n1 [Example 264, N-(1′-(6-(1-cyclopropyl-1H-pyrazol-4-yl)-4-methylpyridin-2-yl)-1′,2′-dihydrospiro[cyclopropane-1,3′-pyrrolo[3,2-c]pyridin]-6′-yl)acetamide trifluoroacetate]",7.00 to 8.00,≤ 6.00,,
"CC(=O)Nc1cc2c(cn1)C1(CC1)CN2c1cc(C)nc(C2CC2C)n1 (stereo not shown) [Example 123, N-(1′-(6-methyl-2-(2-methylcyclopropyl)pyrimidin-4-yl)-1′,2′-dihydrospiro[cyclopropane-1,3′-pyrrolo[3,2-c]pyridin]-6′-yl)acetamide]",≥ 8.00,6.00 to 7.00,,
"CC(=O)Nc1cc2c(cn1)C1(CC1)CN2c1cc(C)nc(N2CCN(C)CC2)n1 [Example 227, N-(1′-(6-methyl-2-(4-methylpiperazin-1-yl)pyrimidin-4-yl)-1′,2′-dihydrospiro[cyclopropane-1,3′-pyrrolo[3,2-c]pyridin]-6′-yl)acetamide]",6.00 to 7.00,≤ 6.00,,
"CC(=O)Nc1cc2c(cn1)C1(CC1)CN2c1cc(C)cc(N2CCC(O)C2)n1 (stereo not shown) [Example 189, N-(1′-(6-(3-hydroxypyrrolidin-1-yl)-4-methylpyridin-2-yl)-1′,2′-dihydrospiro[cyclopropane-1,3′-pyrrolo[3,2-c]pyridin]-6′-yl)acetamide]",7.00 to 8.00,≤ 6.00,,
"CCCc1nc(C)cc(N2CC3(CC3)c3cnc(NC(C)=O)cc32)n1 [Example 65, N-(1′-(6-methyl-2-propylpyrimidin-4-yl)-1′,2′-dihydrospiro[cyclopropane-1,3′-pyrrolo[3,2-c]pyridin]-6′-yl)acetamide]",7.00 to 8.00,6.00 to 7.00,,
"COCCOc1nc(N2CC3(CC3)c3cnc(NC(C)=O)cc32)cc(C(C)(F)F)n1 [Example 287, N-(1′-(6-(1,1-difluoroethyl)-2-(2-methoxyethoxy)pyrimidin-4-yl)-1′,2′-dihydrospiro[cyclopropane-1,3′-pyrrolo[3,2-c]pyridin]-6′-yl)acetamide]",≥ 8.00,6.00 to 7.00,,
